Each structure is given as a SMILES string.

The term EC50 denotes the concentration at which the effect is half-maximal. The term CC50 denotes the concentration giving 50% cytotoxicity.

Series [1] concerns HCV genotype 1b replicon (GS4.1 cells). Nature of the series: HCV replicon assay (NS4A ELISA). The settings on record: Hepatitis C virus, 72 h, 3 days. The class given is cell-based, hepatitis C virus. Here is the method: The biological activity of Compound 1, diastereomer 1 and diastereomer 2 was measured by monitoring expression of the NS4A protein by enzyme-linked immunosorbent assay (ELISA) and by luciferase assay as described below:
The HCV replicon assay measures the ability of a test compound to inhibit HCV replication in cell culture after 3 days of treatment in a human hepatoma cell line (Huh-7) bearing the HCV genotype 1b replicon (GS4.1 cells). The inhibition of HCV replication was measured by quantification of viral NS4A protein using an enzyme-linked immunosorbent assay (ELISA). […] Additionally, the replicon contains the neomycin phosphotransferase gene under the control of the HCV promoter (Source: Dr. Christoph Seeger, Fox Chase Cancer Center, Philadelphia, Pa.).
The NS4A ELISA assay is summarized as follows. Ninety-six-well tissue culture plates were seeded with GS4.1 cells. Antiviral compound solutions were made up freshly in medium as 2×-concentrated stocks. Eight additional 3-fold drug dilutions were prepared from these stocks in medium for a total of 9 dilutions. At least four hours after GS4.1 cells were seeded, drug treatment was initiated by adding one volume of each 2× concentrated drug dilution to one volume of cells/medium in the tissue culture plates. Cells were then incubated for 3 days at 37° C./5% CO2.
The media/compound was then removed from the plates and cells were fixed with acetone:methanol, washed three times with a wash solution, and then blocked for 1 hour with 10% fetal bovine serum in a balanced salt solution. Cells were washed three times and incubated with an anti-hepatitis C NS4A monoclonal antibody (Virogen Corp.) for 2 hours at 37° C. […] The reaction was stopped with diluted sulfuric acid (Mallinckrodt Chemicals) and absorbance measured on a Victor^3V 1420 multilabel counter (Perkin Elmer). EC50 values were calculated from dose response curves from the resulting best-fit equations determined by Microsoft Excel and XLfit 4.1 software.
Background: A replicon is a self-replicating genome or part of one, used to study replication in cells.

Series [2] in a line: Cytotoxicity (MTS assay), GS4.1 cells, Example 18. The format is cell-based, human. The settings on record: human, GS4.1 cells (wild-type); GS4.1 (wild-type), MTS assay, N = 3. As for the experimental part:
(§1) Cells were plated and treated with inhibitors as described above.
(Formazan colour is commonly taken as a measure of viable cells.)

A further series relates to GS4.1 cells. Nature of the series: Cytotoxicity (MTS assay), GS4.1 cells, Example 18. The note with it: wild-type or S282T replicon cells treated with up to 100 μM. The format is cell-based, human. As for the experimental part:
as §1

For series [3], the system named is S282T HCV replicon (184R-A cells). Put plainly: microbe, parasite or virus in culture. As for the experimental part: 3. The 184R-A cell line was derived by culturing wild-type replicon cells in the presence of 1 to 5 μM of Compound 1 for >100 days.
1. […] Huh-7 cells were seeded into column 1 of each plate at a similar density.
2. […] Eight additional 3-fold serial dilutions of each compound were prepared from the 2× stock in assay medium. Final drug concentrations ranged from 100 to 0.015 μM.
3. […] This setup was run in duplicate in each 96-well plate.
4. Cells were incubated with inhibitors for three days at 37° C./5% CO2.
1. After three days of drug treatment, media was removed from the plates via gentle tapping and the cells were fixed to the plates with 100 μL/well of 1:1 acetone:methanol.
2. After one minute of incubation at room temperature, plates were washed three times with 100 μL/well of ELISA wash solution and then blocked with 150 μL/well of 10% FBS-TNE.
3. After a one hour incubation at room temperature, plates were washed three times with 100 μL/well of ELISA wash solution, and then 100 μL/well of mouse anti-hepatitis C […] mAb (1 mg/mL stock diluted 1:1,500 in 10% FBS-TNE) was added.
4. Following 2 hours of incubation at 37° C., plates were washed three times with 100 μL/well of ELISA wash solution, and then 100 μL/well of HRP-goat anti-mouse antibody (diluted 1:4,000 in 10% FBS-TNE) was added.
4. After a one hour incubation period at 37° C., each plate was washed three times with 100 μL/well of ELISA wash solution. Color development was then initiated with 100 μL/well of OPD solution.
5. After a 30 minute incubation period in the dark at room temperature, reactions were stopped by adding 100 μL of 2NH2SO4 to each well.
6. The absorbance was measured at 490 nm on a Victor^3 V 1420 multilabel counter (Perkin Elmer). The percent inhibition of HCV replicon replication was calculated for each drug using an average of the duplicate wells.

The target of a further series is CYP2C8 (Homo sapiens, UniProt P10632). Put plainly: Incubation with human recombinant CYP450 supersomes, 2C8. The class given is in vitro ADME. The settings on record: CYP450 2C8 supersomes, 60 min, 10 μM, average of two experiments. Here is the method: (§2) Supersomes—Incubations were conducted in a final volume of 0.1 mL reaction buffer (50-100 mM potassium phosphate, pH 7.4 or 100 mM Tris-HCL, pH 7.4) according to protocol provided with each CYP450 supersome. Each reaction contained […] of CYP450 supersome, 1.3 mM NADP^+, 3.3 mM glucose-6-phosphate, 0.4 U/mL glucose-6-phosphate dehydrogenase, 3.3 mM MgCl2 and 10 μM Compound 1. Following incubation for 60 min at 37° C., 100 μL of stop solution (acetonitrile:methanol; 1:1) was added and samples centrifuged for 10 min at 10,000×g. The supernatant was then dried and reconstituted in 10 mM potassium phosphate, pH 5, further transferred to an HPLC glass vial and analyzed by HPLC-UV (described above).

The next series has as its target CYP2A6 (Homo sapiens, UniProt P11509). Put plainly: Incubation with human recombinant CYP450 supersomes, 2A6. The settings on record: CYP450 2A6 supersomes, 60 min, 10 μM, average of two experiments. The class given is in vitro ADME. As for the experimental part:
as §2

The nature of series [4]: Cytotoxicity (MTS assay), 184R-A cells. The format is cell-based. The settings on record: human, 184R-A cells (S282T), 184R-A (S282T), N = 3. Here is the method:
as §1

Chain of CYP2C8 (P10632 whole entry): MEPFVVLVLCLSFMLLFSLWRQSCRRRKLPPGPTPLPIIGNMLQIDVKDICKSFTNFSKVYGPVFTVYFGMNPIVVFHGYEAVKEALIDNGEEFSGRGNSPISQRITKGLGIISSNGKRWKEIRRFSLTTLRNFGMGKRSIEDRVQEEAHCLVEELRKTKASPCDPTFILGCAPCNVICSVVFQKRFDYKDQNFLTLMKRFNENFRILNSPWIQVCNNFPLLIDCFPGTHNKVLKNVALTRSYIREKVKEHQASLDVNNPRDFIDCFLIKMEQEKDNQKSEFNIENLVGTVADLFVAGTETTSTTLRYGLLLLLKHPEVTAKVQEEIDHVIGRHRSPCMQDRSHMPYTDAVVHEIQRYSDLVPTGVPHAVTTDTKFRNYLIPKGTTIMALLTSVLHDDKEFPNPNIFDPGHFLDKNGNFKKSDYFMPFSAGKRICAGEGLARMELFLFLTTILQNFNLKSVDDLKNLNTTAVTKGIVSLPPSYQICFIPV
Chain of CYP2A6 (P11509 whole entry): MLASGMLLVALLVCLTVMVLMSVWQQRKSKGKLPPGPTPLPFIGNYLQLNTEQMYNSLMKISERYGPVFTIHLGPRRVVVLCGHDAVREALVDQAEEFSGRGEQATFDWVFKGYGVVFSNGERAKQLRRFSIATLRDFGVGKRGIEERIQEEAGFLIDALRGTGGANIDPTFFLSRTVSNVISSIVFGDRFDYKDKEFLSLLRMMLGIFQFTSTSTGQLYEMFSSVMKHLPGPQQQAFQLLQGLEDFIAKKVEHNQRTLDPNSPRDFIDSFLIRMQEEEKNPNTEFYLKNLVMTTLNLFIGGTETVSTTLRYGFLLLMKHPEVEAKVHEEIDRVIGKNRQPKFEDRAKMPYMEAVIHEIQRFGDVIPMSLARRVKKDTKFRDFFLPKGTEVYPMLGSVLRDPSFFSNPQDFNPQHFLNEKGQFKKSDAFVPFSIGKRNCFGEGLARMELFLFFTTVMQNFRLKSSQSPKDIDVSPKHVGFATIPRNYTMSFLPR

With `CC(C)(CO)C(=O)SCCOP(=O)(NCc1ccccc1)OC[C@H]1O[C@@H](n2cnc3c(=O)[nH]c(N)nc32)[C@](C)(O)[C@@H]1O` (mixture of isomers) [Compound 1, 3-hydroxy-2,2-dimethyl-thiopropionic acid S-(2-{[(2R,3R,4R,5R)-5-(2-amino-6-oxo-1,6-dihydro-purin-9-yl)-3,4-dihydroxy-4-methyl-tetrahydro-furan-2-ylmethoxy]-benzylamino-phosphoryloxy}-ethyl) ester], the results for the EC50 in series [1] and in series [3] (Hepatitis C virus) were 0.379 ± 0.083 µM and 9 µM, respectively. Further, the CC50 at 3 days in series [2] and in series [4] was over 100 µM throughout. Besides, the “in vitro cytotoxicity (MTS)” value with GS4.1 cells is given as “no evidence of in vitro cytotoxicity”. In addition, in series [3] (184R-A (S282T), EC50 in resistant line divided by EC50 in wild-type cells), the “Fold shift from wild-type” value was 30 fold. Moreover, the “% Residual Compound 1” value on CYP2C8 and on CYP2A6 was 105% each time.

The values are drawn from patent US20100003217A1, “Compounds and Pharmaceutical Compositions for the Treatment of Viral Infections” (priority 2008, published 2010).
